In ChEMBL document CHEMBL1151872, “Antagonists of the human A(2A) receptor. Part 5: Highly bio-available pyrimidine-4-carboxamides” (Bioorg Med Chem Lett, 2009):
In brackets after ≈: the same amount, converted by molar mass.

Experiments:
Adenosine receptor A2a [1] = target: T1, Adenosine receptor A2a (Homo sapiens, UniProt P29274)
Description: Displacement of [3H]CGS21680 from human adenosine A2A receptor

Adenosine receptor A1 = target: T2, Adenosine receptor A1 (Homo sapiens, UniProt P30542)
T2 sequence (P30542 whole entry): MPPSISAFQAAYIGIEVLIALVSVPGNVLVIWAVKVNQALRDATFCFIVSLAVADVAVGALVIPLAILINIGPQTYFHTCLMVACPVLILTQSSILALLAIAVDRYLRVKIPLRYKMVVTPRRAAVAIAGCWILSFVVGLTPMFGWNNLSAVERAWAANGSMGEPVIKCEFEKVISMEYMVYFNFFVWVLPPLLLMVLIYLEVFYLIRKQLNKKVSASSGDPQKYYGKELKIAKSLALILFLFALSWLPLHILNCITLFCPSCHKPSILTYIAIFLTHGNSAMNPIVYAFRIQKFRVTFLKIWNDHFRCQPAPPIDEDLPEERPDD
Description: Displacement of [3H]CGS21680 from human adenosine A1 receptor

Adenosine receptor A2b = target: T3, Adenosine receptor A2b (Homo sapiens, UniProt P29275); experiment: Binding affinity to adenosine A2B receptor
T3 sequence (P29275 whole entry): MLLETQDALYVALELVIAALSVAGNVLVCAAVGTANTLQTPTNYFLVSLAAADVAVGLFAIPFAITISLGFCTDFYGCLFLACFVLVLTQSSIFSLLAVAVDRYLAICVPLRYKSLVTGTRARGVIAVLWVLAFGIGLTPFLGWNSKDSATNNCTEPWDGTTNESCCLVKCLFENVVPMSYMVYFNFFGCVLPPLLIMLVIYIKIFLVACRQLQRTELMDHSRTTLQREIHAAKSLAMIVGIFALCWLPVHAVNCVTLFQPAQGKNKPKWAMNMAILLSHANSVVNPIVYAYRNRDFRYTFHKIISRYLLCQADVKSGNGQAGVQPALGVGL

Adenosine receptor A3 = target: T4, Adenosine receptor A3 (Homo sapiens, UniProt P0DMS8); experiment: Binding affinity to adenosine A3 receptor
T4 sequence (P0DMS8 whole entry): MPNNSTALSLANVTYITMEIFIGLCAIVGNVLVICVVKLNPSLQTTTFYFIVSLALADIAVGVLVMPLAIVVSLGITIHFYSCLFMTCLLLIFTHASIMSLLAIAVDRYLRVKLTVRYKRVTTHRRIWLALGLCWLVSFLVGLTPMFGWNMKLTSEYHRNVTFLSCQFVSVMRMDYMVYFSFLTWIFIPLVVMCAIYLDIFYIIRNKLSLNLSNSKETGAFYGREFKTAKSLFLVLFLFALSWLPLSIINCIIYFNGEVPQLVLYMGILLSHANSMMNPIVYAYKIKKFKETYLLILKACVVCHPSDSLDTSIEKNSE

Adenosine receptor A2a [2] = target: T1, Adenosine receptor A2a; remark: listed apart in the source
Description: Agonist activity against human adenosine A2A receptor assessed as calcium mobilization by FLIPR assay

Homo sapiens [3] = species on record: Homo sapiens; experiment: Selectivity for human adenosine A2A receptor over human adenosine A2B receptor
Homo sapiens [4] = species on record: Homo sapiens; experiment: Selectivity for human adenosine A2A receptor over human adenosine A3 receptor
[5] = Aqueous solubility of the compound; assay type: physicochemical
[6] = Inhibition of Cytochrome P450; assay type: ADME
[7] = Half life in po dosed Sprague-Dawley rat plasma; assay type: ADME, organism-based
Brain = experiment: Drug uptake in Sprague-Dawley rat brain at 2 mg/kg, iv; assay type: ADME, organism-based; set-up: dose 2 mg/kg, route intravenous; conditions: in vivo
[8] = Half life in po dosed Sprague-Dawley rat brain; assay type: ADME, organism-based
[9] = Tmax in Sprague-Dawley rat plasma; assay type: ADME, organism-based
Mus musculus = experiment: Reversal of haloperidol-induced locomotor movement deficit in po dosed mouse assessed as minimum effective dose administered 15 mins before testing; conditions: read-out: MED

T1 sequence (P29274 whole entry): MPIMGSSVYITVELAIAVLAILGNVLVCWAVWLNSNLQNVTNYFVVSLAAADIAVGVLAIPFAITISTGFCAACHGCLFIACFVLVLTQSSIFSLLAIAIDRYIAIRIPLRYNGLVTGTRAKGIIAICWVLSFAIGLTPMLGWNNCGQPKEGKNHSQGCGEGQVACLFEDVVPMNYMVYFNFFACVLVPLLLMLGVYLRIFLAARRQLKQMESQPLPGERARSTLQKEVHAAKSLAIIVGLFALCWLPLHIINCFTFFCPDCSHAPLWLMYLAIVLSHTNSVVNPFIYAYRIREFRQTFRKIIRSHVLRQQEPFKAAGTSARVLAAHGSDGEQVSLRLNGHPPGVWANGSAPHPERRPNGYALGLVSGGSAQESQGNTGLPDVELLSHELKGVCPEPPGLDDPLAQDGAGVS

Structure (SMILES) | Ki (Adenosine receptor A2a [1]) [nM] | Ki (Adenosine receptor A1) [nM] | Ki (Adenosine receptor A2b) [nM] | Ki (Adenosine receptor A3) [nM] | EC50 (Adenosine receptor A2a [2]) [nM] | minimal effective dose (Mus musculus) [mg/kg] | also measured
Nc1nc(C(=O)NCc2ccco2)cc(-c2ccco2)n1 | 14 | 214 | – | – | – | – | –
Nc1nc(C(=O)NCc2ccc(F)cc2)cc(-c2ccco2)n1 | 20 | 140 | – | – | – | – | –
Nc1nc(C(=O)NCc2ccncc2)cc(-c2ccco2)n1 | 388 | 1340 | – | – | – | – | –
Nc1nc(NC(=O)c2ccncc2)c([N+](=O)[O-])c(-c2ccco2)n1 | 153 | 2000 | – | – | – | – | –
Nc1nc(C(=O)NCc2cccc(Cl)c2)cc(-c2ccco2)n1 | 3.7 | 12.2 | 184 | 507 | ≥ 10000 | – | –
COCc1cccc(CNC(=O)c2cc(-c3ccco3)nc(N)n2)n1 | 1.7 | 42 | 460 | 1740 | ≥ 10000 | 0.1 | Ratio Ki (Homo sapiens [3]): < 1000; Ratio Ki (Homo sapiens [4]): < 1000; solubility [5]: 450 µM (≈ 153 µg/mL); Activity [6]: Not Active; half-life [7]: 1 h; Drug uptake (Brain): 85%; half-life [8]: 1 h; Tmax [9]: 0.25 h
Nc1nc(C(=O)NCc2ccccc2Cl)cc(-c2ccco2)n1 | 2.6 | 72 | 137 | 414 | ≥ 10000 | 30 | –
CCn1c(=O)c2c(nc(/C=C/c3ccc(OC)c(OC)c3)n2C)n(CC)c1=O [ISTRADEFYLLINE] | – | – | – | – | – | 0.3 | –
Nc1nc(NC(=O)c2ccccc2OC(F)(F)F)c([N+](=O)[O-])c(-c2ccco2)n1 | 16 | 298 | – | – | – | – | –
Cc1ccc(CNC(=O)c2cc(-c3ccco3)nc(N)n2)cc1 | 9.5 | 102 | 1240 | 1850 | ≥ 10000 | – | –
COc1ccccc1C(=O)Nc1nc(N)nc(-c2ccco2)c1[N+](=O)[O-] | 170 | 770 | – | – | – | – | –
Nc1cccc(CNC(=O)c2cc(-c3ccco3)nc(N)n2)n1 | 7 | 131 | 444 | 1480 | ≥ 10000 | 1 | –
COc1ccccc1CC(=O)Nc1nc(N)nc(-c2ccco2)c1[N+](=O)[O-] | 10 | 884 | – | – | – | – | –
COc1cccc(CNC(=O)c2cc(-c3ccco3)nc(N)n2)c1 | 6.1 | 47 | 121 | 1100 | ≥ 10000 | – | –
Nc1nc(C(=O)NCc2ccc(Cl)cc2)cc(-c2ccco2)n1 | 17.5 | 80 | – | – | – | – | –
Nc1nc(NC(=O)c2ccccc2F)c([N+](=O)[O-])c(-c2ccco2)n1 | 23 | 311 | – | – | – | – | –
COc1ccc(CNC(=O)c2cc(-c3ccco3)nc(N)n2)cc1 | 79 | 157 | – | – | – | – | –
COc1ccccc1CNC(=O)c1cc(-c2ccco2)nc(N)n1 | 3.5 | 34.5 | 156 | 402 | ≥ 10000 | 20 | –
Nc1nc(C(=O)NCc2cccc(CO)n2)cc(-c2ccco2)n1 | 9.3 | 260 | – | – | – | 30 | –
Nc1nc(NC(=O)c2cccnc2)c([N+](=O)[O-])c(-c2ccco2)n1 | 220 | 3540 | – | – | – | – | –
Nc1nc(C(=O)NCc2ccccc2F)cc(-c2ccco2)n1 | 3.5 | 54 | 67 | 335 | ≥ 10000 | 30 | –
Cc1ccccc1CNC(=O)c1cc(-c2ccco2)nc(N)n1 | 2.2 | 73 | 917 | 586 | ≥ 10000 | 30 | –
Nc1nc(C(=O)NCc2cccnc2)cc(-c2ccco2)n1 | 9.4 | 124 | 5870 | 6440 | ≥ 10000 | – | Ratio Ki (Homo sapiens [3]): < 1000; Ratio Ki (Homo sapiens [4]): < 1000
Nc1nc(NC(=O)c2ccccc2)c([N+](=O)[O-])c(-c2ccco2)n1 | 308 | 2060 | – | – | – | – | –
Nc1nc(C(=O)NCc2ccccc2)cc(-c2ccco2)n1 | 7.6 | 58 | 858 | 857 | ≥ 10000 | – | –
Nc1nc(C(=O)NCc2cccc(F)c2)cc(-c2ccco2)n1 | 4.8 | 39 | 924 | 1060 | ≥ 10000 | – | –
Cc1cccc(CNC(=O)c2cc(-c3ccco3)nc(N)n2)c1 | 2.6 | 38 | 402 | 1530 | ≥ 10000 | 3 | Ratio Ki (Homo sapiens [3]): < 1000; Ratio Ki (Homo sapiens [4]): < 1000
Nc1nc(C(=O)NCc2ccccn2)cc(-c2ccco2)n1 | – | – | 754 | 1390 | – | 3 | –
